Measured values reported in ChEMBL document CHEMBL2074517, “Bile acid inhibition of P-glycoprotein-mediated transport in multidrug-resistant cells and rat liver canalicular membrane vesicles” (Hepatology, 1994).

How the values were obtained:
Design in all cases: scale not given: the % may be the effect or the level left
[1] = molecular target: Multidrug resistance protein 1a (Rattus norvegicus) (UniProt Q6PSM0); experiment: TP_TRANSPORTER: inhibition of Daunomycin uptake (Daunorubicin: 10 uM, UDCA: 200 uM) in canalicular membrane vesicles from SD rat; format: functional, cell membranes; settings: Sprague-Dawley, Canalicular membrane vesicle
[2] = molecular target: Multidrug resistance protein 1a (Rattus norvegicus) (UniProt Q6PSM0); experiment: TP_TRANSPORTER: inhibition of Daunomycin uptake (Daunorubicin: 10 uM, TCDC: 200 uM) in canalicular membrane vesicles from SD rat; format: functional, cell membranes; settings: Sprague-Dawley, Canalicular membrane vesicle
[3] = molecular target: ATP-dependent translocase ABCB1 (Homo sapiens, UniProt P08183); experiment: TP_TRANSPORTER: inhibition of Rhodamine 123 efflux (R123: 5 ug/mL, TCDC: 200 uM) in P1(0.5) cells; format: functional, cell-based
[4] = molecular target: ATP-dependent translocase ABCB1 (P-glycoprotein) (Homo sapiens, UniProt P08183); experiment: TP_TRANSPORTER: inhibition of Rhodamine 123 efflux (R123: 5 ug/mL, TLCA: 200 uM) in P1(0.5) cells; format: functional, cell-based; settings: probe Rhodamine 123, read-out: Activity
[5] = molecular target: Multidrug resistance protein 1a (Rattus norvegicus) (UniProt Q6PSM0); experiment: TP_TRANSPORTER: inhibition of Daunomycin uptake (Daunorubicin: 10 uM, TLCA: 200 uM) in canalicular membrane vesicles from SD rat; format: functional, cell membranes; settings: Sprague-Dawley, Canalicular membrane vesicle

Sequence of Multidrug resistance protein 1a (Rattus norvegicus) (Q6PSM0 as listed by the source): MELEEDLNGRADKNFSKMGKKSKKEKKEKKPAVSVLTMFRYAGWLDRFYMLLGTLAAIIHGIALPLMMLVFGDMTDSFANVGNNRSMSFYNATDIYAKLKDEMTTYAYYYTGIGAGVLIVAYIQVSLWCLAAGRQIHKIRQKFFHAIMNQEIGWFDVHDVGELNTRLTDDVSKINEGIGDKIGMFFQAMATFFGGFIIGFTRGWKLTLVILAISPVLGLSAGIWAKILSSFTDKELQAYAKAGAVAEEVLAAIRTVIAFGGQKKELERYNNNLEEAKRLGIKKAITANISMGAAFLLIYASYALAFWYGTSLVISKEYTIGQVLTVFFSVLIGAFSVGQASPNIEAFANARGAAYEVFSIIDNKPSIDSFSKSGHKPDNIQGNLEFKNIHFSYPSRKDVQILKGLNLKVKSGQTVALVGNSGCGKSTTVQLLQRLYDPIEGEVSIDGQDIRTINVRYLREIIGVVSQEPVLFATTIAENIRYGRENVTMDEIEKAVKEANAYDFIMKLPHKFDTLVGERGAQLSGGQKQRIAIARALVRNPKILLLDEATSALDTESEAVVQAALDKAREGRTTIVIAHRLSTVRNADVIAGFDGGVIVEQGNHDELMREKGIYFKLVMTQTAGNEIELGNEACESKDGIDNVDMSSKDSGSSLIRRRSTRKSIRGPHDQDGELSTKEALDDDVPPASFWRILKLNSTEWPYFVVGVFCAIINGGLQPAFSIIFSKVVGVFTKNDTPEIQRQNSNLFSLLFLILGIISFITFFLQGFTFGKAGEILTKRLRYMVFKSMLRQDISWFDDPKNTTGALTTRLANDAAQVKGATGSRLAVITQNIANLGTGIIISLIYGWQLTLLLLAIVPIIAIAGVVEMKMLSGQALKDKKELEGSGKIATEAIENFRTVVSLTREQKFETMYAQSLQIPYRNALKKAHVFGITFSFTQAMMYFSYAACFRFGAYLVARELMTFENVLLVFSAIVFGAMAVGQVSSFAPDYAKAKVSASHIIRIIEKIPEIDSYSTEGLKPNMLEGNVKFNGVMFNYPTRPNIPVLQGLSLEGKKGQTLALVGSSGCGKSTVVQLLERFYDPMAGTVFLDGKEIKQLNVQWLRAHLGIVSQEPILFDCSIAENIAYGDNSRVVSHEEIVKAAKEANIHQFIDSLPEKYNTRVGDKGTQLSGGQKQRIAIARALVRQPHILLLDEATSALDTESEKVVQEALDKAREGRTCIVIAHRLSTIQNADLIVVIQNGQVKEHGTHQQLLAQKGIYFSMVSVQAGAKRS
Sequence of ATP-dependent translocase ABCB1 (P08183 whole entry): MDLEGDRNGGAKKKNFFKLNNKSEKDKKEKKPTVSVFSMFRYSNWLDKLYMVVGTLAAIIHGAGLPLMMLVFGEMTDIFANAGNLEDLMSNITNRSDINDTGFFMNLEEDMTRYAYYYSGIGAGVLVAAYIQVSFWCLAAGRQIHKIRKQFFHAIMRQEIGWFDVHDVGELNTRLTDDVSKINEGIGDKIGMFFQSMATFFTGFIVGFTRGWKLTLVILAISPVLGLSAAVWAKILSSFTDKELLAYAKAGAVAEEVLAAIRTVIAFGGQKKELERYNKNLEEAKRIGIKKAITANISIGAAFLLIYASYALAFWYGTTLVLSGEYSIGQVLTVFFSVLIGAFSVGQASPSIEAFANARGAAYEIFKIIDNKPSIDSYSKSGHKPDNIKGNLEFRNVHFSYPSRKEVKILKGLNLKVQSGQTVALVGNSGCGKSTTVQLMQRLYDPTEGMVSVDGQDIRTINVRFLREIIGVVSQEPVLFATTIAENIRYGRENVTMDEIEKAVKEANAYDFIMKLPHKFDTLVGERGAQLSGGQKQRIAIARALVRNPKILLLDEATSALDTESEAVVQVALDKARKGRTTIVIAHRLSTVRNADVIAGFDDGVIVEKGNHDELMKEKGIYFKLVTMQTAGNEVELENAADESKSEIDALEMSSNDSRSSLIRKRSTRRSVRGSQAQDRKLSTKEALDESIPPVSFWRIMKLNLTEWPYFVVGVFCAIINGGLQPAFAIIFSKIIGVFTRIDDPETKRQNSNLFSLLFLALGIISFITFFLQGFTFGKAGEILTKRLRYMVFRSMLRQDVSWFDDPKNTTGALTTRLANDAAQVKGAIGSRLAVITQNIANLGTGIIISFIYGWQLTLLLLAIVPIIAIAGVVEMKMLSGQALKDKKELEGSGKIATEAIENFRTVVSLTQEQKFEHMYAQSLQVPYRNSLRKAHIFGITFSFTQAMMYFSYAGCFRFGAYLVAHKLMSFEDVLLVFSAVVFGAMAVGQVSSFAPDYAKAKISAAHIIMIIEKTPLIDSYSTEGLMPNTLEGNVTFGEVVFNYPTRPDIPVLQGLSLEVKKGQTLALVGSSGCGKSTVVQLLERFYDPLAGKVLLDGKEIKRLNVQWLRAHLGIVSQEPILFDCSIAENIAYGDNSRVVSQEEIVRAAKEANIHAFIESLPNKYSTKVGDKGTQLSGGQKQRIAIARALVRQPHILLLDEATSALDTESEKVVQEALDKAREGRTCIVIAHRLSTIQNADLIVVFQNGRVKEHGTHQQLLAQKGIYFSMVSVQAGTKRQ
Sequence of ATP-dependent translocase ABCB1 (P-glycoprotein) (P08183 whole entry): as above

For `C[C@H](CCC(=O)O)[C@H]1CC[C@H]2[C@@H]3[C@@H](O)C[C@@H]4C[C@H](O)CC[C@]4(C)[C@H]3CC[C@]12C`, the Activity [1] was 39%.
Compound `C[C@H](CCC(=O)NCCS(=O)(=O)O)[C@H]1CC[C@H]2[C@@H]3[C@H](O)C[C@@H]4C[C@H](O)CC[C@]4(C)[C@H]3CC[C@]12C` [TAUROCHENODEOXYCHOLATE] has an Activity [2] of 33% and an Activity [3] of 66%.
Work on `C[C@H](CCC(=O)NCCS(=O)(=O)O)[C@H]1CC[C@H]2[C@@H]3CC[C@@H]4C[C@H](O)CC[C@]4(C)[C@H]3CC[C@]12C` [TAUROLITHOCHOLIC ACID] yielded an activity at 200 µM [4] of 40% and an Activity [5] of 16%.
